One series relates to colon 26 cells. Kind of series: colon 26 cells IC50 (whole cell assay). The series is classed as cell-based. To be noted: Mus musculus. The procedure:
Whole Cell MAP Kinase Assay
To determine if compounds block activation of MAP kinase in whole cells, the following protocol is used. Cells are plated in multi-well plates and grown to confluence. Cells are serum-deprived overnight. […] After a 5-minute treatment with the growth factor, cells are washed with PBS, and lysed in a buffer consisting of 70 mM NaCl, 10 mM HEPES (pH 7.4), 50 mM glycerol phosphate, and 1% Triton X-100. Lysates are clarified by centrifugation at 13,000×g for 10 minutes. Five to fifteen micrograms of protein from the resulting supernatants are subjected to SDS/PAGE and Western blotting for phosphorylated MAP kinase levels.

The target in series [1] is GST-MEK (p45MEK) / GST-MAPK (p44MAP kinase) cascade (APK) (Homo sapiens, UniProt Q02750). Put plainly: APK IC50 (cascade assay for inhibitors of the MAP kinase pathway). It is filed as biochemical. The procedure:
Cascade Assay for Inhibitors of the MAP Kinase Pathway
Incorporation of ^32P into myelin basic protein (MBP) is assayed in the presence of a glutathione S-transferase fusion protein containing p44MAP kinase (GST-MAPK) and a glutathione S-transferase fusion protein containing p45MEK (GST-MEK). The assay solution contains 20 mM HEPES, pH 7.4, 10 mM MgCl2, 1 mM EGTA, 50 μM [γ-^32P]ATP, 10 μg GST-MEK, 0.5 μg GST-MAPK and 40 μg MBP in a final volume of 100 μL. Reactions are stopped after 20 minutes by addition of trichloroacetic acid and filtered through a GFIC filter mat. ^32P retained on the filter mat is determined using a 120S Betaplate. Compounds are assessed at 10 μM for ability to inhibit incorporation of 32P.
To ascertain whether compounds are inhibiting GST-MEK or GST MAPK, two additional protocols are employed. In the first protocol, compounds are added to tubes containing GST-MEK, followed by addition of GST-MAPK, MBP and [γ-^32P]ATP. In the second protocol, compounds are added to tubes containing both GST-MEK and GST-MAPK, followed by MBP and [γ-^32P]ATP.
Compounds that show activity in both protocols are scored as MAPK inhibitors, while compounds showing activity in only the first protocol are scored as MEK inhibitors.

Molecules are shown by their SMILES. Where a name gives a salt, the structure may show the parent alone. Read-outs that look alike come from different tables or passages of the source. Some results are limits rather than exact numbers.

The IC50 is the midpoint of a concentration-inhibition curve. In general, melting point refers to the temperature of the solid-liquid transition.

GST-MEK (p45MEK) / GST-MAPK (p44MAP kinase) cascade (APK), sequence (Q02750 whole entry): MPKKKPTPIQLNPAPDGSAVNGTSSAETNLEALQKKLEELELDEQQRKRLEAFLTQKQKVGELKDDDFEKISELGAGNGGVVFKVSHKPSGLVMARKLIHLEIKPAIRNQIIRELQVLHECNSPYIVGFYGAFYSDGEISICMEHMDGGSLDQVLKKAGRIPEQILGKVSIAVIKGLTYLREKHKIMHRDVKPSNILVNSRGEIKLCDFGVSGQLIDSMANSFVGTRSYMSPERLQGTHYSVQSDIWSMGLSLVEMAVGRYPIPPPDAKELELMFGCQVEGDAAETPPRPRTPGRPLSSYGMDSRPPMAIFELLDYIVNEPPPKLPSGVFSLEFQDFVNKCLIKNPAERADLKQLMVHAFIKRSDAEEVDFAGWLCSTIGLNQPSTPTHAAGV

Take `Cc1cc(I)ccc1Nc1c(C(=O)NOCC2CC2)cc2nc[nH]c2c1F` [PD 254552, 7-fluoro-6-(4-iodo-2-methyl-phenylamino)-1H-benzoimidazole-5-carboxylic acid cyclopropylmethoxy-amide]: the half-maximal inhibitory concentration (IC50) is 20 nM in the series on colon 26 cells (read-out: Colon 26 Cells, 1 Hour Pretreatment, IC50) and below 10 nM in series [1].

For `Cc1cc(I)ccc1Nc1c(C(=O)Oc2c(F)c(F)c(F)c(F)c2F)cc2nc[nH]c2c1F` [PD 254551, 7-fluoro-6-(4-iodo-2-methyl-phenylamino)-1H-benzoimidazole-5-carboxylic acid pentafluorophenyl ester], 120 nM corresponded to half-maximal inhibition in series [1] (IC50).

In turn, `Cc1cc(I)ccc1Nc1c(C(=O)NOCC2CC2)cc2nc[nH]c2c1F` (as salt: salt) [PD 254552, 7-fluoro-6-(4-iodo-2-methyl-phenylamino)-1H-benzoimidazole-5-carboxylic acid cyclopropylmethoxy-amide] had a melting point of 168 to 172 °C.

For `Cc1cc(I)ccc1Nc1c(C(=O)O)cc2nc[nH]c2c1F` [PD 205293, 7-fluoro-6-(4-iodo-2-methyl-phenylamino)-1H-benzoimidazole-5-carboxylic acid], the melting point is 247 to 248 °C (dec.). Besides, the IC50 in the series on colon 26 cells (read-out: colon 26 cells, IC50) was above 10000 nM.

The values are drawn from patent US6469004B1, “Benzoheterocycles and their uses as MEK inhibitors” (Warner-Lambert Company, priority 1999, dated 2002).
